Source: patent US11291683B2, “Bilayer tablets of B vitamins and process for preparing the same” (Access Business Group International LLC, priority 2016, dated 2022)

How the values were obtained:
[1] = Dissolution of bilayer time release multi-B vitamin tablets, USP Apparatus 2 (paddle), HPLC; format: physicochemical
Method: To investigate the effect of basic yeast on the dissolution profile of folic acid from vitamin B time release tablet, five formulas (Table 2) with different amounts of yeast were tested. The amount of yeast in the modified release layer was kept constant at 30 mg and included at least 15% hydroxypropyl methylcellulose (which acts as a controlled-release polymer).
Dissolution testing was performed using a qualified Sotax dissolution tester operated as USP Apparatus 2 (paddle) at 75 rpm and at 37±0.5° C. The media used for dissolution was different for different B vitamins and was selected to minimize degradation of these vitamins for the length of the study i.e. 8 hours. Each dissolution test was performed with 6 tablets. Sample aliquots were collected at 2, 4, 6, and 8 hour and filtered through 0.45-μm Millex-HV syringe filters, and analyzed by HPLC for dissolution samples.

[2] = cited from earlier work
[3] = USP <711> in vitro dissolution of Nutrilite Vitamin B formulation NF6853; format: physicochemical
Excerpt: The USP requirement for instant release vitamins is for not less than 75% of label claim to be released within one hour.

SMILES | Solubility in Water (Per 100 ml water) [2] [g per 100 ml water] | other results
O=C(O)CCCC[C@@H]1SC[C@@H]2NC(=O)N[C@@H]21 [Biotin, biotin] | 0.022 | predicted release profile from modified release matrix ([1]; predicted from release of folic acid and thiamine and solubility order, biotin was not analyzed): intermediate release profile
Nc1nc2ncc(CNc3ccc(C(=O)N[C@@H](CCC(=O)O)C(=O)O)cc3)nc2c(=O)[nH]1 [Folic Acid, folic acid] | 0.016 | 
NC(=O)c1cccnc1 [Niacinamide (B3), niacinamide] | 69.1 | 
Cc1ncc(CO)c(CO)c1O [Pyridoxine (B6), pyridoxine] | 30.8 | 
Cc1cc2nc3c(=O)[nH]c(=O)nc-3n(C[C@H](O)[C@H](O)[C@H](O)CO)c2cc1C [Riboflavin (B2), riboflavin] | 0.010 | release from the immediate release layer, % of the label claim ([1]; bi-layer tablet, immediate release layer): around 104%; release of riboflavin (B2) within an hour ([3]; in vitro dissolution, meets USP requirement of not less than 75% of label claim within one hour): complete release; % release (input) ([3]; instant release layer of NF6853, 1 hour, cumulative release based on input): 77.12%; % release (LC) ([3]; instant release layer of NF6853, 1 hour, cumulative release based on label claim): 104%
